According to patent publication US4803275A, “2-oxo-5-methyl-6-[4-heptene]-2H-pyrano[3,2-c]pyridine” (Takeda Chemical Industries, Ltd., priority 1986, dated 1989):
≈ marks a conversion by molar mass, not a printed value.

Key:
[1] = tested on: Candida albicans IFO 0583; test: Antimicrobial activity; format: cell-based; conditions: IFO0583, TSA medium containing 1% glucose, read-out: Minimum Inhibitory Concentration (MIC)
[2] = tested on: Cryptococcus neoformans IFO 0410; test: Antimicrobial activity; format: cell-based; conditions: IFO0410, TSA medium containing 1% glucose, read-out: Minimum Inhibitory Concentration (MIC)
[3] = tested on: Bacillus subtilis PCI 219; test: Antimicrobial activity; format: cell-based; conditions: PCI219, TSA medium containing 1% glucose, read-out: Minimum Inhibitory Concentration (MIC)
[4] = tested on: Candida parakrusei IFO 0640; test: Antimicrobial activity; format: cell-based; conditions: IFO0640, TSA medium containing 1% glucose, read-out: Minimum Inhibitory Concentration (MIC)
[5] = tested on: Escherichia coli K 12; test: Antimicrobial activity; format: cell-based; conditions: K12, TSA medium containing 1% glucose, read-out: Minimum Inhibitory Concentration (MIC)
[6] = Acute toxicity, single intraperitoneal dose in mice; conditions: mouse, in vivo, ip
[7] = tested on: Trichophyton mentagrophytes IFO 7522; test: Antimicrobial activity; format: cell-based; conditions: IFO7522, TSA medium containing 1% glucose, read-out: Minimum Inhibitory Concentration (MIC)
[8] = Solubility; format: physicochemical
[9] = tested on: Staphylococcus aureus FDA 209 P; test: Antimicrobial activity; format: cell-based; conditions: FDA209, TSA medium containing 1% glucose, read-out: Minimum Inhibitory Concentration (MIC)
[10] = tested on: Bacillus cereus IFO 3514; test: Antimicrobial activity; format: cell-based; conditions: IFO3514, TSA medium containing 1% glucose, read-out: Minimum Inhibitory Concentration (MIC)
[11] = tested on: Aspergillus niger IFO 4066; test: Antimicrobial activity; format: cell-based; conditions: IFO4066, TSA medium containing 1% glucose, read-out: Minimum Inhibitory Concentration (MIC)
[12] = tested on: Pseudomonas aeruginosa IFO 3080; test: Antimicrobial activity; format: cell-based; conditions: IFO3080, TSA medium containing 1% glucose, read-out: Minimum Inhibitory Concentration (MIC)
[13] = tested on: Penicillium chrysogenum IFO 4626; test: Antimicrobial activity; format: cell-based; conditions: IFO4626, TSA medium containing 1% glucose, read-out: Minimum Inhibitory Concentration (MIC)
[14] = tested on: Trichophyton rubrum IFO 5467; test: Antimicrobial activity; format: cell-based; conditions: IFO5467, TSA medium containing 1% glucose, read-out: Minimum Inhibitory Concentration (MIC)
[15] = tested on: Candida parapsilosis IFO 1396; test: Antimicrobial activity; format: cell-based; conditions: Lodderomyces parapsilosis, IFO1396, TSA medium containing 1% glucose, read-out: Minimum Inhibitory Concentration (MIC)
[16] = tested on: Rhodotorula rubra IFO 0907; test: Antimicrobial activity; format: cell-based; conditions: IFO0907, TSA medium containing 1% glucose, read-out: Minimum Inhibitory Concentration (MIC)
[17] = tested on: Candida utilis IFO 0619; test: Antimicrobial activity; format: cell-based; conditions: Williopsis jadinii, IFO0619, TSA medium containing 1% glucose, read-out: Minimum Inhibitory Concentration (MIC)
[18] = tested on: Candida krusei IFO 1395; test: Antimicrobial activity; format: cell-based; conditions: Pichia kudriavzevii, IFO1395, TSA medium containing 1% glucose, read-out: Minimum Inhibitory Concentration (MIC)
[19] = tested on: Saccharomyces cerevisiae IFO 0209; test: Antimicrobial activity; format: cell-based; conditions: IFO0209, TSA medium containing 1% glucose, read-out: Minimum Inhibitory Concentration (MIC)
[20] = tested on: synthesis of fatty acid (rat liver homogenates); test: Inhibitory activity of the synthesis of fatty acid (rat liver homogenates, 1-14C-acetate); format: biochemical, rat (SD-strain); conditions: vs. no addition of the inhibiting agent, 37° C., 60 min
Protocol: Determination of the Inhibitory activity of the synthesis of fatty acid was conducted by using homogenates prepared from rat livers. Preparation of the rat liver homogenates, composition of the reaction solution for determination of inhibitory activity and method of the determination were in accordance with the method by J. Iliffe et al. described on "Biochemical Journal" 91, 369 (1964) and the method by T. Kariya et al. described on "Biochemical and Biophysical Research Communications" 80, 1022 (1978). More specifically, SD-strain male rats (6-week old) had been fasted for 2 days and then refed for 24 hours. They were killed by blood letting. The livers were then removed immediately, to which was added a 0.25M sucrose solution containing 2 mM EDTA, 5 mM nicotinamide and 1 mM 2-mercaptoethanol so that the final volume of the solution may be 4 ml relative to 1 g of the wet weight of the livers. […]
Into a 10 ml flask containing 1.85 ml of a reaction mixture consisting of 45 mM of tris-HCl buffer (pH 7.4), 10 mM of KHCO3, 4 mM of MgCl2, 45 mM of KCl, 5 mM of K2 HPO4, 15 mM of potassium citrate, 1 mM of NADP, 2 mM of ATP, 5 mM of glucose-6-phosphate, 0.4 mM of coenzyme A, 5 mM of dithiothreitol and 0.5 ml of the enzyle solution, was blown a mixture gas (95% O2 :5% CO2). […] The radio-activity extracted into the petroleum ether layer was measured.

[21] = tested on: Pyricularia oryzae P-18; test: microbe, parasite or virus in culture; format: cell-based; conditions: P18, read-out: Minimum Inhibitory Concentration (MIC)
[22] = tested on: Proteus vulgaris IFO 3045; test: Antimicrobial activity; format: cell-based; conditions: IFO3045, TSA medium containing 1% glucose, read-out: Minimum Inhibitory Concentration (MIC)
[23] = tested on: Candida tropicalis IFO 0006; test: Antimicrobial activity; format: cell-based; conditions: IFO0006, TSA medium containing 1% glucose, read-out: Minimum Inhibitory Concentration (MIC)

With `CCC/C=C/CCC1Oc2cc[nH]c(=O)c2C=C1C` (stereo not drawn) [FA-4283] the MIC [1] was 3.13 µg/mL (≈ 12.1 µM), the MIC [2] was 25 µg/mL (≈ 96.4 µM) and the MIC [3] was > 100 µg/mL. The MIC [4] was > 100 µg/mL, the MIC [5] was > 100 µg/mL and the LD50 [6] was ≥ 400 mg/kg. For the same compound, the MIC [7] was 6.25 µg/mL (≈ 24.1 µM), the Solubility ([8]; chloroform) was “readily soluble” and the Solubility ([8]; diethyl ether) was “soluble”. The Solubility ([8]; dimethyl sulfoxide) was “readily soluble”, the Solubility ([8]; dimethyl-formamide) was “readily soluble” and the Solubility ([8]; ethanol) was “readily soluble”. For the same compound, the Solubility ([8]; ethyl acetate) was “soluble”, the Solubility ([8]; methanol) was “readily soluble” and the Solubility ([8]; n-hexane) was “sparingly soluble”. For the same compound, the Solubility ([8]; petroleum ether) was “sparingly soluble”, the Solubility ([8]; water) was “insoluble” and the MIC [9] was > 100 µg/mL. For the same compound, the MIC [10] was > 100 µg/mL, the MIC [11] was > 100 µg/mL and the MIC [12] was > 100 µg/mL. For the same compound, the MIC [13] was > 100 µg/mL, the MIC [14] was 6.25 µg/mL (≈ 24.1 µM) and the MIC [15] was > 100 µg/mL. For the same compound, the MIC [16] was 0.39 µg/mL (≈ 1.5 µM), the MIC [17] was 3.13 µg/mL (≈ 12.1 µM) and the MIC [18] was > 100 µg/mL. The MIC [19] was > 100 µg/mL, the “inhibitory activity of the synthesis of fatty acid” value ([20]; 5×10^-4 M) was 97% and the “inhibition of the synthesis of fatty acid” value ([20]; 10^-3 M) was 98%. For the same compound, the MIC [21] was 3.18 µg/mL (≈ 12.3 µM), the MIC [22] was > 100 µg/mL and the MIC [23] was 50 µg/mL (≈ 193 µM).
